Laboratory results published in publication PMC2673089 (Journal of pharmaceutical sciences, 2008).

Tests used:
[1] = tested on: MDCK-MDR1 monolayers; assay: Bidirectional transport and verapamil inhibition across MDCK-MDR1 monolayers; format: in vitro ADME
[2] = tested on: pooled human liver microsomes; assay: Metabolism in pooled human liver microsomes; format: in vitro ADME
[3] = tested on: pooled male Sprague–Dawley rat liver microsomes; assay: Metabolism in pooled male rat liver microsomes; format: in vitro ADME
[4] = biological target: human CYP2D6 (Homo sapiens, UniProt P10635); assay: Metabolism by recombinant human CYP2D6 Supersomes; format: in vitro ADME
[5] = biological target: T1, rat CYP1A2 (Rattus norvegicus, UniProt P04799); assay: Metabolism by recombinant rat CYP1A2 Supersomes; format: in vitro ADME
T1 sequence (P04799 1-513): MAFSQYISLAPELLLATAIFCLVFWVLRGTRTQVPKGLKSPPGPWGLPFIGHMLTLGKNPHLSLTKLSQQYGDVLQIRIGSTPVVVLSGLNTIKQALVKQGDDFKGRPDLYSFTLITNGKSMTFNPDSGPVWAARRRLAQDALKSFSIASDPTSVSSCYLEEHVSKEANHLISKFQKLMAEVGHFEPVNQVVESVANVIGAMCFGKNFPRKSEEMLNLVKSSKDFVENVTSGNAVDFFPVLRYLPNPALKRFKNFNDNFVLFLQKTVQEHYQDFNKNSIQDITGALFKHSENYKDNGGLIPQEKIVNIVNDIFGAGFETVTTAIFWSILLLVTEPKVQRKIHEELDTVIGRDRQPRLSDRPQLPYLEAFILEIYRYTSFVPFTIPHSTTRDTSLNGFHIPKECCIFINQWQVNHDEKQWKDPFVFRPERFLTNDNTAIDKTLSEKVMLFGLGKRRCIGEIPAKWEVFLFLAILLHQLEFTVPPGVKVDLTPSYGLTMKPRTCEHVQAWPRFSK

[6] = biological target: T2, rat CYP2D1 (Rattus norvegicus, UniProt P10633); assay: Metabolism by recombinant rat CYP2D1 Supersomes; format: in vitro ADME
T2 sequence (P10633 1-504): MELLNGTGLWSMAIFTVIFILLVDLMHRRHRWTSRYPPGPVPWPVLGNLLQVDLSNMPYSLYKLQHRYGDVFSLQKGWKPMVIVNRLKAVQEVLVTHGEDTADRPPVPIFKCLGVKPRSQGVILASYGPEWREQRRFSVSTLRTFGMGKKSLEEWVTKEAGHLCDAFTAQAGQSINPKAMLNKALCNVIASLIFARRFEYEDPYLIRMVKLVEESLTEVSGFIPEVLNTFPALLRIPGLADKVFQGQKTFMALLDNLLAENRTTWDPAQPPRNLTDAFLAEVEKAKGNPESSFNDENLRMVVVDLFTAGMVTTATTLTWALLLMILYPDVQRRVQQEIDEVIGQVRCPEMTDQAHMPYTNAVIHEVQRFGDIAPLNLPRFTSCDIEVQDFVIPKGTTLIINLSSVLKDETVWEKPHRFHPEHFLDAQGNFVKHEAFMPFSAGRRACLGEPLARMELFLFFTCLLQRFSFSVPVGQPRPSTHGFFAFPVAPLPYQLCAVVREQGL

[7] = biological target: T3, rat CYP3A1 (Rattus norvegicus, UniProt P04800); assay: Metabolism by recombinant rat CYP3A1 Supersomes; format: in vitro ADME
T3 sequence (P04800 1-504): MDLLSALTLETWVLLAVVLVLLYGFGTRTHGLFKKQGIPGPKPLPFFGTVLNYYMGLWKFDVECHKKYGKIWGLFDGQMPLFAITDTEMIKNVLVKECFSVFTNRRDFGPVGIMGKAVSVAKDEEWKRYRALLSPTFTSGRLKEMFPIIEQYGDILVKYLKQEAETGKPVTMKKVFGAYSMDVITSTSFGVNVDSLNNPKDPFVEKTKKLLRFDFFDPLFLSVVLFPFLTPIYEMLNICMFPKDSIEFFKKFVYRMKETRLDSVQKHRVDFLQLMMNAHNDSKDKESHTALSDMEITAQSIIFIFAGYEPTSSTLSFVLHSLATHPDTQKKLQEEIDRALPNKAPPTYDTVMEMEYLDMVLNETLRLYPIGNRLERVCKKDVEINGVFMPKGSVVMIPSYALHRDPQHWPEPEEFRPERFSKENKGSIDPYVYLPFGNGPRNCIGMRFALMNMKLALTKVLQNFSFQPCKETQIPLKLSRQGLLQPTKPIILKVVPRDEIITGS

[8] = Pharmacokinetics and brain uptake after i.v. dosing; format: in vivo, male Sprague–Dawley rats; conditions: for AUC0–1440 min (plasma): noncompartmental analysis
[9] = biological target: DAT; conditions: read-out: DAT Ki; mean ± SEM; cited from earlier work
[10] = biological target: SERT; conditions: read-out: SERT Ki; mean ± SEM; cited from earlier work
[11] = biological target: NET; conditions: read-out: NET Ki; mean ± SEM; cited from earlier work
[12] = biological target: muscarinic M1 receptors; conditions: read-out: M1 Ki; mean ± SEM; cited from earlier work
[13] = tested on: DA uptake; conditions: read-out: DA Uptake IC50; mean ± SEM; cited from earlier work
[14] = MDCK-MDR1, 0.1 mM, absence of verapamil, mean ± SD (n = 3)
[15] = population PK estimate (% CV), i.v. 5 and 10 mg/kg combined, n = 54 rats

Chain of human CYP2D6 (P10635 whole entry): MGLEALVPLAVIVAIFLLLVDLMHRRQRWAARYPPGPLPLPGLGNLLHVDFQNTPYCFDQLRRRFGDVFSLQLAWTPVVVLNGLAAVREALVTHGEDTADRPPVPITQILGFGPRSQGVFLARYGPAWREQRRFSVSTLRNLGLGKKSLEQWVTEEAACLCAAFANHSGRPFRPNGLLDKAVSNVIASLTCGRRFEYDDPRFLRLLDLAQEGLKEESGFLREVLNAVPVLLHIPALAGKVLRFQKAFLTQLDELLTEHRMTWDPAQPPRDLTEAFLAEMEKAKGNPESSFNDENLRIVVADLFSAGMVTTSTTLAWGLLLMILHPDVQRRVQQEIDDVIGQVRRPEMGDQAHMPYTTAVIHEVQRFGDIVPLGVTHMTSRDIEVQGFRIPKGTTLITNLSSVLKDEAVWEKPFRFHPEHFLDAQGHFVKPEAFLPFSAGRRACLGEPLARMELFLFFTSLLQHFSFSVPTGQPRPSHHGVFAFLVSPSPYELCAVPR

Question: For CC(C)[C@@H](N)CN1C2CCC1CC(OC(c1ccc(F)cc1)c1ccc(F)cc1)C2 (stereo partly drawn) [GA2-50, N-((R)-2″-amino-3″-methyl-n-butyl)-3α-[(bis-4′-fluorophenyl)methoxy]tropane], which “Permeability relative to JHW 025” value ([1]; MDCK-MDR1) is on record?
Answer: around 6.8 fold

Question: And the “Efflux Ratio” value ([1]; MDCK-MDR1, 0.1 mM, Papp(B-A)/Papp(A-B))?
Answer: 3.4

Question: And the “Papp A-B” value [1, 14]?
Answer: 34.01 ± 2.78 × 10^−6 cm/s

Question: And the “Papp B-A” value [1, 14]?
Answer: 116.97 ± 5.23 × 10^−6 cm/s

Question: What about the “Enhancement ratio of A-B transport by verapamil” value ([1]; MDCK-MDR1, verapamil 200 μM) of the same compound?
Answer: 2.3

Question: What about the P-gp substrate status ([1]; polarized transport across MDCK-MDR1 and Caco-2, verapamil-sensitive) of the same compound?
Answer: substrate for the efflux transporter P-gp

Question: And the “Intrinsic Clearance” value ([2]; Pooled HLM 0.8 mg/mL, 4 μM, mean ± SD n = 3)?
Answer: 3.17 ± 1.18 microliters per minute per milligram of protein

Question: What about the “Intrinsic clearance, fold lower than 4′,4″-diCl BZT” value ([2]; pooled human liver microsomes, comparator values ref 26) of the same compound?
Answer: 4.0 fold

Question: And the “Intrinsic Clearance” value ([3]; Pooled male RLM 0.8 mg/mL, 4 μM, mean ± SD n = 3)?
Answer: 5.96 ± 0.56 microliters per minute per milligram of protein

Question: And the “Intrinsic clearance in pooled male RLM relative to HLM” value ([3]; higher in rat than in human liver microsomes)?
Answer: 1.9 fold

Question: And the “Intrinsic clearance, fold lower than 4′,4″-diCl BZT” value ([3]; pooled male rat liver microsomes, comparator values ref 26)?
Answer: 3.6 fold

Question: And the “Intrinsic Clearance” value ([4]; Human CYP 2D6 50 pmol/mL, 4 μM)?
Answer: 0.15 ± 0.02 (b) microliters per minute per picomole of P450

Question: And the “Substrate disappearance after 60 min incubation vs control” value (shortened to “Substrate disappearance … vs control”) ([4]; human CYP2D6, 10 μM, 50 pmol/mL P450, p < 0.05)?
Answer: statistically significant disappearance

Question: What about the “Intrinsic Clearance” value ([5]; Rat CYP 1A2 50 pmol/mL, 4 μM) of the same compound?
Answer: 0.06 ± 0.01 (d) microliters per minute per picomole of P450

Question: And the “Substrate disappearance … vs control” value ([5]; rat CYP1A2, 10 μM, 50 pmol/mL P450, p < 0.05)?
Answer: statistically significant disappearance

Question: What about the “Intrinsic Clearance” value ([6]; Rat CYP 2D1 50 pmol/mL, 4 μM) of the same compound?
Answer: 0.11 ± 0.02 (c) microliters per minute per picomole of P450

Question: What about the “Substrate disappearance … vs control” value ([6]; rat CYP2D1, 10 μM, 50 pmol/mL P450, p < 0.05) of the same compound?
Answer: statistically significant disappearance

Question: What about the “Intrinsic Clearance” value ([7]; Rat CYP 3A1 50 pmol/mL, 4 μM) of the same compound?
Answer: 0.09 ± 0.02 (c,d) microliters per minute per picomole of P450

Question: What about the “Substrate disappearance … vs control” value ([7]; rat CYP3A1, 10 μM, 50 pmol/mL P450, p < 0.05) of the same compound?
Answer: statistically significant disappearance

Question: And the “brain-to-plasma partition coefficient (Ri)” value ([8]; 5 mg/kg i.v., AUC0–1440 min brain/plasma)?
Answer: 10.1

Question: What about the “AUC0–1440 min (plasma)” value ([8]; 5 mg/kg i.v.) of the same compound?
Answer: 141.8 µg·min/mL

Question: And the “maximal total brain concentration” value ([8]; 10 mg/kg i.v.)?
Answer: approximately 5 μg/g

Question: And the “brain-to-plasma partition coefficient (Ri)” value ([8]; 10 mg/kg i.v., AUC0–1440 min brain/plasma)?
Answer: 9.6

Question: And the “AUC0–1440 min (plasma)” value ([8]; 10 mg/kg i.v.)?
Answer: 258.0 µg·min/mL

Question: And the Vss ([8]; Table 4, secondary parameter from NONMEM empirical Bayes estimates, i.v., rats)?
Answer: 622 mL/min/kg

Question: And the signs of toxicity ([8]; i.v. 5 or 10 mg/kg)?
Answer: did not show any signs of toxicity

Question: What about the “brain-to-plasma partition coefficient (Ri)” value ([8]; overall, dose not specified) of the same compound?
Answer: ~ 10

Question: What about the CL [8, 15] of the same compound?
Answer: 1.34 (9.3) L/h/kg

Question: What about the Q [8, 15] of the same compound?
Answer: 7.8 (19.9) L/h/kg

Question: What about the Vc [8, 15] of the same compound?
Answer: 8.09 (13.6) L/kg

Question: What about the Vp [8, 15] of the same compound?
Answer: 27.9 (10.5) L/kg

Question: And the “t1/2 (elimination half-life)” value ([8]; secondary parameter from NONMEM empirical Bayes estimates, i.v., rats)?
Answer: 19.2 h

Question: What about the Ki [9] of the same compound?
Answer: 56.4 ± 9.6 nM

Question: What about the Ki [10] of the same compound?
Answer: 3870 ± 135 nM

Question: What about the Ki [11] of the same compound?
Answer: 2130 ± 160 nM

Question: And the Ki [12]?
Answer: 4020 ± 592 nM

Question: What about the IC50 [13] of the same compound?
Answer: 20.7 ± 2.85 nM
